{
  "source": "patent US20080207716A1",
  "about": "“Formulations and Dosing Regiment for Ppar-Alpha Modulators” (Eli Lilly and Company Patent Division, priority 2005, published 2008)",
  "assay_type_in_all_cases": "in vivo, human",
  "key": {"[1]": {"experiment": "Pharmacokinetics after oral single- and multiple-dose administration", "method": "(§1) A single-blinded, single- (SDSS) and multiple-dose (MDSS), placebo-controlled, dose-escalation study is designed to evaluate the safety, pharmacokinetics, and pharmacodynamics of orally administered study drug in healthy obese men and women. Three different groups of subjects complete a one-step escalation of the study drug dose within Periods 1 and 2 (SDSS). The design includes a total of 6 active doses (0.1, 1, 10, 30, 60, and 100 mg) to be tested. The decision to escalate to higher doses is based on the safety assessment of preceding doses. The minimum time between dose escalations within Periods 1 and 2 is one week.\n(§2) Each of the 3 groups of subjects consist of approximately 9 subjects in a 2:1 ratio of active treatment to placebo, where the order of placebo administration is randomized across both the SDSS and MDSS portions of the study. All 3 groups of subjects shall be scheduled to participate in both SDSS and MDSS portions. However, the SDSS portion is completed and analyzed several months prior to beginning the MDSS (Period 3/4). The 45-day MDSS portion of the original study is designed to test 4 active doses (0.025, 0.1, 1 and 10 mg) administered daily for the first 14 days of the study. The MDSS portion recruits subjects to form 4 groups of subjects. Approximately 36 subjects (9 per dose group) are enrolled into the MDSS portion of the study.\nThe median time at maximal concentration (tmax) was approximately 0.5 to 1 hour. The exposure appeared dose-proportional within the studied range."}, "[2]": {"system": "healthy obese men and women", "experiment": "Lipid pharmacodynamics (LDL-C, ApoB, ApoC), SDSS clinical study", "source_text": "(§3) A single-blinded, single- (SDSS) and multiple-dose (MDSS), placebo-controlled, dose-escalation study is designed to evaluate the safety, pharmacokinetics, and pharmacodynamics of orally administered study drug in healthy obese men and women. Three different groups of subjects complete a one-step escalation of the study drug dose within Periods 1 and 2 (SDSS). […] The decision to escalate to higher doses is based on the safety assessment of preceding doses. The minimum time between dose escalations within Periods 1 and 2 is one week.\n(§4) Safety is assessed throughout the study by physical examination, adverse event monitoring, electrocardiograms, clinical laboratory tests, and vital sign measurements. Pharmacodynamic evaluation includes a postprandial lipid response during the single-dose safety portion. During the multiple-dose safety study, the pharmacodynamic evaluation includes an oral glucose tolerance test, a fasting lipid panel and a postprandial lipid test. The static lipid panel included triglycerides, total cholesterol, low-density lipoprotein cholesterol [LDL-C], high-density lipoprotein cholesterol [HDL-C], Apoliproteins A1, A2, B, and C3 for cholesterol metabolism. C-reactive protein (CRP) and adiponectin are measured as biomarkers for inflammation and peroxisome proliferated agonist receptor (PPAR) gamma activity, respectively. […]"}, "healthy obese subjects": {"system": "healthy obese subjects", "experiment": "Fasting lipid panel, MDSS clinical study (14 days daily dosing, 30 day follow up)", "source_text": "FIG. 1. FIG. 1 illustrates the time profile of percentage change from baseline for LDL-C following the administration of daily oral doses of LY518674 over 14 days and 30 day follow up afterwards, in healthy obese subjects in MDSS of a study conducted substantially as described by Example 1.\nas §2\n(§5) Safety is assessed throughout the study by physical examination, adverse event monitoring, electrocardiograms, clinical laboratory tests, and vital sign measurements. Pharmacodynamic evaluation includes a postprandial lipid response during the single-dose safety portion. During the multiple-dose safety study, the pharmacodynamic evaluation includes an oral glucose tolerance test, a fasting lipid panel and a postprandial lipid test. The static lipid panel included triglycerides, total cholesterol, low-density lipoprotein cholesterol [LDL-C], high-density lipoprotein cholesterol [HDL-C], Apoliproteins A1, A2, B, and C3 for cholesterol metabolism. C-reactive protein (CRP) and adiponectin are measured as biomarkers for inflammation and peroxisome proliferated agonist receptor (PPAR) gamma activity, respectively. The dynamic lipid tests include post-prandial measurements of glucose and triglycerides."}, "[3]": {"system": "healthy obese men and women", "experiment": "Meal tolerance test in the single-dose (SDSS) portion of the clinical study", "settings": "for Triglyceride AUEC(24-37) geometric mean (95% CI): 24-37 h post dose, placebo 44.6", "source_text": "as §3, §5\nA meal tolerance test (MTT) was performed from 24 to 37 hours after each single dose during the SDSS portion of a clinical trial conducted substantially as described herein by Example 1 using LY518674 as the study drug. The data are analyzed by calculating an area under the concentration-time curve for triglycerides, nonesterified fatty acids and glucose over the postprandial periods from breakfast to lunch (area under the effect curve [AUEC{24-28}]), after lunch (AUEC[28-37]), and the entire test period (AUEC[24-37])."}, "[4]": {"system": "healthy obese men and women", "experiment": "Safety and tolerability assessment, SDSS clinical study", "settings": "single oral doses 30 and 60 mg", "method": "as §1\nas §4, with “The static lipid panel included triglycerides, total cholesterol, low-density lipoprotein cholesterol [LDL-C], high-density lipoprotein cholesterol [HDL-C], Apoliproteins A1, A2, B, and C3 for cholesterol metabolism.” left out"}},
  "data": [
    {"compound": "Cc1ccc(Cn2nc(CCCc3ccc(OC(C)(C)C(=O)O)cc3)[nH]c2=O)cc1", "note": "[LY518674, Propanoic Acid, 2-[4-[3-[2,5-dihydro-1-[(4-methylphenyl)methyl]-5-oxo-1H-1,2,4-triazol-3-yl]propyl]phenoxy]-2-methyl-]", "values": [
      {"measurement": "half-life", "setting": "[1]; both sexes, human, in vivo, oral, as stated in MDSS results", "value": "~10", "unit": "h"},
      {"measurement": "half-life", "setting": "[1]; both sexes, human, in vivo, oral, as stated in SDSS/PK results", "value": "< 10", "unit": "h"},
      {"measurement": "Tmax", "setting": "[1]; both sexes, human, in vivo, oral, healthy obese subjects, read-out: Median time at maximal concentration (tmax)", "value": "0.5 to 1", "unit": "h"},
      {"measurement": "Time to steady-state exposure", "setting": "[1]; daily oral dosing", "value": "≤ 2", "unit": "days"},
      {"measurement": "Mean accumulation ratio", "setting": "[1]; daily oral dosing, steady state", "value": "no more than 1.35"},
      {"measurement": "Absorption after oral administration", "setting": "[1]; healthy obese subjects", "value": "rapidly absorbed"},
      {"measurement": "Pharmacokinetics following single- versus multiple-dose administration", "setting": "[1]; in vivo", "value": "No differences"},
      {"measurement": "Exposure versus dose", "setting": "[1]; within the studied dose range", "value": "dose-proportional"},
      {"measurement": "ApoB and ApoC change", "setting": "[2]; SDSS, oral", "value": "decreased in a fashion similar to that seen for LDL-C changes"},
      {"measurement": "LDL-C change", "setting": "[2]; single oral dose 0.01 mg", "value": "LDL-C reduction consistent with the reduction observed at the higher doses"},
      {"measurement": "Lowest dose providing a pharmaceutically desirable effect", "setting": "healthy obese subjects; MDSS study", "value": 25, "unit": "µg"},
      {"measurement": "Maintenance of pharmacological effect after dosing stopped", "setting": "healthy obese subjects; after 14 days daily dosing", "value": "~14", "unit": "days"},
      {"measurement": "Time for all parameters to return to baseline after cessation of dosing", "setting": "healthy obese subjects; after 14 days daily dosing", "value": "≤ 2", "unit": "weeks"},
      {"measurement": "LDL-C change", "setting": "healthy obese subjects; daily oral doses 0.025, 0.1, 1 and 10 mg for 14 days, all doses similar magnitude", "value": "dramatically reduced"},
      {"measurement": "Lowest dose providing a pharmaceutically desirable effect", "setting": "[3]; single dose study", "value": 100, "unit": "µg"},
      {"measurement": "Effect on triglyceride (TG) AUEC", "setting": "[3]; single dose, meal tolerance test 24 to 37 hours post dose", "value": "rapid and profound reduction"},
      {"measurement": "Dose at which maximum TG AUEC reduction is approached", "setting": "[3]; single oral dose", "value": "approximately 1 mg"},
      {"measurement": "Triglyceride AUEC(24-37) geometric mean (95% CI)", "setting": "[3]; single oral dose 0.01 mg", "value": "37.8 (31.2, 45.8) mmol · hr/L"},
      {"measurement": "Triglyceride AUEC(24-37) ratio of geometric means, dose vs. placebo (95% CI)", "setting": "[3]; single oral dose 0.01 mg, p 0.083", "value": "0.85 (0.70, 1.02) [0.083]"},
      {"measurement": "Triglyceride AUEC(24-37) geometric mean (95% CI)", "setting": "[3]; single oral dose 0.1 mg", "value": "27.6 (23.0, 33.2) mmol · hr/L"},
      {"measurement": "Triglyceride AUEC(24-37) ratio of geometric means, dose vs. placebo (95% CI)", "setting": "[3]; single oral dose 0.1 mg, p <.001", "value": "0.62 (0.52, 0.74) [<.001*]"},
      {"measurement": "Triglyceride AUEC(24-37) geometric mean (95% CI)", "setting": "[3]; single oral dose 1 mg", "value": "23.9 (20.0, 28.6) mmol · hr/L"},
      {"measurement": "Triglyceride AUEC(24-37) ratio of geometric means, dose vs. placebo (95% CI)", "setting": "[3]; single oral dose 1 mg, p <.001", "value": "0.54 (0.45, 0.64) [<.001*]"},
      {"measurement": "Triglyceride AUEC(24-37) geometric mean (95% CI)", "setting": "[3]; single oral dose 10 mg", "value": "24.3 (20.1, 29.5) mmol · hr/L"},
      {"measurement": "Triglyceride AUEC(24-37) ratio of geometric means, dose vs. placebo (95% CI)", "setting": "[3]; single oral dose 10 mg, p <.001", "value": "0.55 (0.45, 0.67) [<.001*]"},
      {"measurement": "Triglyceride AUEC(24-37) geometric mean (95% CI)", "setting": "[3]; single oral dose 30 mg", "value": "20.0 (16.3, 24.5) mmol · hr/L"},
      {"measurement": "Triglyceride AUEC(24-37) ratio of geometric means, dose vs. placebo (95% CI)", "setting": "[3]; single oral dose 30 mg, p <.001", "value": "0.45 (0.37, 0.54) [<.001*]"},
      {"measurement": "Triglyceride AUEC(24-37) geometric mean (95% CI)", "setting": "[3]; single oral dose 60 mg", "value": "25.2 (20.6, 30.7) mmol · hr/L"},
      {"measurement": "Triglyceride AUEC(24-37) ratio of geometric means, dose vs. placebo (95% CI)", "setting": "[3]; single oral dose 60 mg, p <.001", "value": "0.56 (0.46, 0.69) [<.001*]"},
      {"measurement": "Tolerability finding prohibiting administration of higher doses", "setting": "[4]", "value": "Gastrointestinal intolerance"}
    ]}
  ]
}
